From patent publication US8309552B2, “Immunomodulating heterocyclic compounds” (Medigene AG, priority 2003, dated 2012)
Read-outs that look alike come from different tables or passages of the source.

Key:
[1] = target: T1, Biotinylated human CD80 (hCD80-BT) (Homo sapiens, UniProt P33681); test: BIAcore biomolecular interaction analysis, binding to immobilised hCD80-BT; design: off-rate on CD80: unit not given here; conditions: BIAcore S51, immobilised hCD80-BT
T1 construct: biotin (biotinylated)
T1 sequence (P33681 35-242 limits assumed): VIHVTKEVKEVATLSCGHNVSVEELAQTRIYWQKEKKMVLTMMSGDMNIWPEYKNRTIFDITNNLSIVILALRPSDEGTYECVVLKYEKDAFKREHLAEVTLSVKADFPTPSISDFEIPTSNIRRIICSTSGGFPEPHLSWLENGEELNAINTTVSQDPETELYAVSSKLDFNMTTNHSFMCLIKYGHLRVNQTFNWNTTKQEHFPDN
Text: The Use of BIAcore Biomolecular Interaction Analysis
Biotinylated human CD80 (hCD80-BT) is a recombinant soluble form of a membrane bound receptor molecule (CD80) which binds to CD28 to initiate T cell activation. The interaction between CD80 and CD28 has been extensively investigated (Collins et al, 2002). Biotinlyated human HLA-A2-tax is the recombinant soluble form of a membrane bound receptor molecule that has been used in this example as a control protein, and is not expected to interact with the compounds.
The BIAcore S51™ system was used for screening the compounds of Examples 1-4 above. A series S sensor chip CM5 was docked onto the BIAcore S51™. Streptavidin was coupled to the carboxymethyl surface using standard amine coupling. The chip surface was activated with 0.2M EDC/0.05M NHS, followed by binding of streptavidin (0.25 mg/ml in 10 mM sodium acetate pH 5.0) and saturation of unoccupied sites with […].
The BIAcore S51 sensor chip has two separate sensor spots for immobilisation of proteins. hCD80-BT was immobilised on the streptavidin-coated surface of one sensor spot until a response of approximately 3000 RU was observed. A protein to control for non-specific binding of the compound was immobilised on a second sensor spot. The control protein used for these experiments was a biotinylated, soluble form of the human HLA protein.
Dilution series of compounds (1000 nM-0.05 nM) were prepared in running buffer (10 mM, pH 7.4, 150 mM NaCl, 0.005% P20; 5% DMSO).
BIAcore S51™ was run at a flow rate of 30 μl/min using running buffer. Compounds and DMSO standard solutions for correction of data for solvent effects were injected. Data were recorded automatically and were analysed using BIAcore S51 Evaluation software.

[2] = test system: production of Interleukin-2 (IL-2) by Human Jurkat T Cells; test: Inhibition of production of interleukin-2 (IL-2) by human Jurkat T cells (Raji/Jurkat co-culture, anti-CD3, IL-2 ELISA); type: cell-based; conditions: at 30 μM, read-out: inhibition of IL-2 production
Method: • Collins A V et al. (2002) Immunity 17, 201-210 “The interaction properties of costimulatory molecules revisited” Inhibition of Production of Interleukin-2 (IL-2) by Human Jurkat T Cells. Method
Human Raji cells were dispensed at a concentration of 2×10^5 cells per well in RPMI-1640 medium supplemented with 10% fetal calf serum, 1% penicillin/streptomycin, 1% glutamine (RPMI medium) in a 96-well round bottom microtitre plate. Compounds under investigation (dissolved in 100% DMSO) were diluted to eight-fold the desired final concentration in RPMI medium and added to the required final concentration for a total volume of 200 μl per well. After 20 minutes incubation at 37° C., Jurkat T cells were added at a concentration of 2×10^5 cells per well. Monoclonal antibody to CD3 (UCHT1, R&D Systems) was added to the cultures at a final concentration of 1 μg per ml, and where indicated, monoclonal antibody to CD28 (CD28.2, BD-Pharmingen) was also added at a concentration of 2.5 μg per ml. Cells were cultured at 37° C. for 5 hours, after which the plates were centrifuged and the supernatants harvested for IL-2 ELISA assay using the IL-2 Eli-pair kit (DIACLONE Research, Besancon, France) according to the manufacturers instructions.

CD80-CD28 interaction = target: T2, CD80-CD28 interaction (Homo sapiens, UniProt P33681); test: Homogenous Time Resolved Fluorescence (HTRF) assay, cell free; type: binding; conditions: inhibition of the CD80-CD28 interaction, 4 hours at room temperature; read-out: EC50 activity in the HTRF assay
T2 sequence (P33681 35-242 limits assumed): T1 sequence (P33681 35-242 limits assumed)
Outline: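 In pH7.8 Tris-HCl/NaCl buffer with 0.1% BSA, a 100 μM-1.7 nM compound series was incubated for 4 h at room temperature with CD28 and CD80 fusions carrying europium and APC via linker antibodies. Time-resolved signals at 665 and 615 nm were read after 340 nm excitation; a C215 Fab swap defined background. EC50 given as banded classes.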

[3] = target: T1, Biotinylated human CD80 (hCD80-BT); conditions: CD80/CD28 interaction, cited from earlier work

CN(C)CCCNC(=O)c1ccc(-n2[nH]c3c(nnc4ccccc43)c2=O)cc1 [Example 2, N-[(dimethylamino)propyl]-4-(3-oxo-1,3-dihydro-2H-pyrazolo[4,3-c]cinnolin-2-yl)benzamide]
Kd [1]: < 100 nM
off-rate on CD80 [1]: 2×10^−2
inhibition at 30 µM [2]: 65%
EC50 (CD80-CD28 interaction): < 1000 nM

CD28: "the endogenous protein ligand (CD28)" of CD80; "CD28 on T-cells"
off-rate of CD80 interaction with endogenous protein ligand [3]: greater than 0.2 s^−1
Kd ([3]; read-out: KD of CD80 interaction with endogenous protein ligand): 4750 nM
